Measurements reported in US5869479A, “Treatment of upper airway allergic responses” (Schering Corporation, priority 1997, dated 1999).

How the values were obtained:
[1] = test system: nasal airway resistance; assay: Nasal airway resistance (NAR) in anesthetized cats after aerosolized Compound 48/80 challenge; assay type: in vivo
From the text: (§1) Adult cats are anesthetized with intraperitoneal injections of sodium pentobarbital. The right femoral artery and vein are cannulated for measurement of blood pressure with a pressure transducer, and for the administration of drugs. The animals are paralyzed with intravenous gallamine triethiodide and subsequently mechanically ventilated with room air, using an animal ventilator. After isolation of the cervical […], a cuffed endotracheal tube is advanced rostrally into the posterior nasopharynx and inflated to form an air-tight seal, allowing continuous measurement of pressure changes within the nasal cavity. The right nasal airway is occluded with dental impression compound, and humidified air is passed through the left nasal airway at about 1.7 liters per minute. By means of pressure transducers, nasal airway pressure and insufflation pressure can be derived and electronically recorded.
The known histamine releaser "Compound 48/80" (the condensation product of N-methyl-p-methoxyphenethylamine with formaldehyde, sold by Sigma Chemical Company, St. Louis, Mo., USA), as a 1.0 percent solution in 0.9 percent aqueous saline solution, is aerosolized into the air stream for 2 minutes to induce an increased NAR. This effect is used to study the decongestant effects of various test substances, administered to the animals intravenously 10 minutes prior to the introduction of Compound 48/80. These substances include 0.9 percent aqueous saline (normal saline "Vehicle"), phenylpropanolamine hydrochloride at 1.0 mg/Kg of the free drug, thioperamide maleate at 10 mg/Kg of the free drug and chlorpheniramine maleate at 0.8 mg/Kg of the free drug, all of the drug compounds being in solution in 0.9 percent aqueous saline. […]

[2] = Blood pressure change from baseline in the cat experiments; assay type: in vivo, cats; conditions: Example 4, phenylpropanolamine 1 mg/Kg
From the text: as §1
The known histamine releaser "Compound 48/80" (the condensation product of N-methyl-p-methoxyphenethylamine with formaldehyde, sold by Sigma Chemical Company, St. Louis, Mo., USA), as a 1.0 percent solution in 0.9 percent aqueous saline solution, is aerosolized into the air stream for 2 minutes to induce an increased NAR. This effect is used to study the decongestant effects of various test substances, administered to the animals intravenously 10 minutes prior to the introduction of Compound 48/80. These substances include 0.9 percent aqueous saline (normal saline "Vehicle"), phenylpropanolamine hydrochloride at 1.0 mg/Kg of the free drug, thioperamide maleate at 10 mg/Kg of the free drug and chlorpheniramine maleate at 0.8 mg/Kg of the free drug, all of the drug compounds being in solution in 0.9 percent aqueous saline.
Blood pressure data from the experiments of the preceding examples are examined, to determine the effects of certain congestion-preventing treatments.

[3] = molecular target: T1, histamine H3 receptor (Cavia porcellus, UniProt Q9JI35); assay: Guinea pig brain membrane assay, affinity for histamine H3 receptor binding sites (Korte et al.); conditions: Example 5
T1 construct: from tissue; host or cells: guinea pig brain membranes
T1 sequence (Q9JI35 whole entry): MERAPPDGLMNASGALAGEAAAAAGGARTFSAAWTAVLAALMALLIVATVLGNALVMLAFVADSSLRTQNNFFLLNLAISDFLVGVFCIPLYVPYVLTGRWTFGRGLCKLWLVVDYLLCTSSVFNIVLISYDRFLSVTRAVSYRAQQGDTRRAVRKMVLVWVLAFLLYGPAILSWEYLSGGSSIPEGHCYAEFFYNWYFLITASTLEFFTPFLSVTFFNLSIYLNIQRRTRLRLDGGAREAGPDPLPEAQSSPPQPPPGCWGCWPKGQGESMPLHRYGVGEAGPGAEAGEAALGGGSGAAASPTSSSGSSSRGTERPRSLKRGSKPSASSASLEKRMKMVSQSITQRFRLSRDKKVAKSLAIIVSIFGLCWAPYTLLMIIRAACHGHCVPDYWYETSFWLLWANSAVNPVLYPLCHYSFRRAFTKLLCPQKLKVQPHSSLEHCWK
From the text: A particularly useful screening assay measures binding to sites in guinea pig brain membranes. This test is described in detail by Korte et al., "Characterization and Tissue Distribution of H3 Histamine Receptors in Guinea Pigs by N^α -Methylhistamine," in Biochemical and Biophysical Research Communications, Vol. 168, pages 979-986 (1990), and quantifies the displacement of bound radiolabeled N^α -methylhistamine from tissues by candidate compounds. Results are expressed as "Ki " values, in nanoMolar (nM) units, which values can be considered as being dissociation constants for the H3 antagonist on the H3 receptor system, or an index of antagonist affinity for the receptor. The present inventors have evidence that decongestant activity in their invention for a given H3 antagonist concentration can be predicted to increase as the Ki value obtained from the assay for an antagonist decreases. In general, Ki values less than about 200 nM are considered necessary for an agent to be useful as an H3 antagonist in the invention.
The affinity of various histamine H3 receptor antagonists for binding sites is determined by a guinea pig brain membrane assay, according to the procedure of Korte et al., Biochemical and Biophysical Research Communications, Vol. 168, pages 979-986 (1990).

[4] = Example 1, i.v. 10 min before Compound 48/80, phenylpropanolamine 1.0 mg/Kg, thioperamide 10 mg/Kg, chlorpheniramine 0.8 mg/Kg (free drug), vehicle 9.1, baseline 2.6

Structure (SMILES): CN(C)CCC(c1ccc(Cl)cc1)c1ccccn1 (centres unmarked) [Chlorpheniramine, chlorpheniramine]
- NAR (nasal airway resistance) [1, 4]: 6.0 centimeters of water/liters pe

Structure (SMILES): NC(=NCc1ccc(Cl)cc1)SCCCc1cnc[nH]1 [Clobenpropit, clobenpropit]
- Prevention of nasal congestion (in words) ([1]; Example 3, clobenpropit alone or with chlorpheniramine 0.8 mg/Kg): does not exhibit significant prevention of nasal congestion
- NAR (nasal airway resistance) ([1]; Example 3, i.v., clobenpropit 1.0 mg/Kg alone, vehicle 9.1): 5.5 centimeters of water/liters pe

Structure (SMILES): CCOC(=O)N1CCC(=C2c3ccc(Cl)cc3CCc3cccnc32)CC1 [Loratadine, loratadine]
- NAR (nasal airway resistance) ([1]; Example 6, loratadine 3 mg/Kg, thioperamide 10 mg/Kg, vehicle 30% dimethylsulfoxide, 40% ethanol, 30% normal saline (vehicle 12.6)): 10.2 centimeters of water/liters pe

Structure (SMILES): CC(N)C(O)c1ccccc1 (centres unmarked) [Phenylpropanolamine, phenylpropanolamine]
- NAR (nasal airway resistance) [1, 4]: 2.9 centimeters of water/liters pe
- Statistical difference of NAR from vehicle ([1]; Example 1, phenylpropanolamine 1.0 mg/Kg i.v.): statistically different result from that for the vehicle
- Nasal congestion-preventing effect compared with thioperamide + chlorpheniramine combination ([1]; Example 4 comment, phenylpropanolamine 1 mg/Kg): approximately equivalent nasal congestion-preventing effect
- Blood pressure, change from baseline ([2]; i.v., thioperamide 10 mg/Kg + CPA 0.8 mg/kg, vehicle -16): +31 mm Hg
- Statistical difference of blood pressure change from vehicle [2]: statistically different from those for the vehicle
- Effect on blood pressure (in words) ([2]; thioperamide 10 mg/Kg + CPA 0.8 mg/kg): significantly increases blood pressure

Structure (SMILES): S=C(NC1CCCCC1)N1CCC(c2cnc[nH]2)CC1 [Thioperamide, thioperamide]
- NAR (nasal airway resistance) [1, 4]: 6.7 centimeters of water/liters pe

Structure (SMILES): COc1ccc(C/C(=N\O)C(=O)NCCc2c[nH]cn2)cc1Br [Verongamine, verongamine]
- Statistical difference of NAR from vehicle ([1]; Example 5, verongamine 10 mg/Kg): not statistically different from that for the vehicle
- NAR (nasal airway resistance) ([1]; Example 5, verongamine 10 mg/Kg, different vehicle (vehicle 7.8)): 7.3 centimeters of water/liters pe
- Ki [3]: > 200 nM
